Assay results as given in patent publication US7498349B2, “Biaryl compounds having anti-infective activity” (Genesoft Pharmaceuticals, Inc., priority 2002, dated 2009).

Tests used:
S. pneumoniae ATCC 49619 = assay: MIC, NCCLS broth microdilution assay; type: cell-based, Streptococcus pneumoniae; conditions: S. pneumoniae ATCC 49619
E. faecalis ATCC 29212 = assay: MIC, NCCLS broth microdilution assay; type: cell-based, Enterococcus faecalis; conditions: E. faecalis ATCC 29212
B. cereus ATCC 11778 = assay: MIC, NCCLS broth microdilution assay; type: cell-based, Bacillus cereus; conditions: B. cereus ATCC 11778
S. aureus ATCC 13709 = assay: MIC, NCCLS broth microdilution assay; type: cell-based, Staphylococcus aureus; conditions: S. aureus ATCC 13709, methicillin sensitive strain (MSSA)
Excerpt: (§1) In vitro biological activity data were collected for a variety of microorganisms, including Bacillus cereus (ATCC 11778), Staphylococcus aureus (ATCC 33591; ATCC 27660, a methicillin resistant strain (MRSA); ATCC 13709, a methicillin sensitive strain (MSSA)), Escherichia coli (ATCC 25922), Enterococcus faecalis (ATCC 29212), Streptococcus pneumoniae (ATCC 49619; ATCC 51422, a penicillin resistant strain (PRSP)), Enterococcus faecium (ATCC 51559, a vancomycin resistant strain (VRE)), and Staphylococcus epidermidis (ATCC 12228).
(§2) The minimal inhibition concentration (MIC) of these compounds was determined using the National Committee for Clinical Laboratory Standards (NCCLS) broth microdilution assay in microtiter plates, as set forth in: (1) the guidelines of the National Committee for Clinical Laboratory Standards (NCCLS) Document M7-A4 (NCCLS, 1997); (2) the guidelines of the National Committee for Clinical Laboratory Standards (NCCLS) Document M11-A4 (NCCLS, 1997); and (3) the guidelines and reference method of the National Committee for Clinical Laboratory Standards (NCCLS) Document M27 -T (NCCLS, 1995).

E. coli ATCC 25922 = assay: MIC, NCCLS broth microdilution assay; type: cell-based, Escherichia coli; conditions: E. coli ATCC 25922
S. aureus ATCC 27660 = assay: MIC, NCCLS broth microdilution assay; type: cell-based, Staphylococcus aureus; conditions: S. aureus ATCC 27660, methicillin resistant strain (MRSA)
Excerpt: as §1, §2

C. albicans ATCC 38247 = assay: MIC, antifungal assay; type: cell-based, Candida albicans; conditions: C. albicans ATCC 38247
Excerpt: In vitro biological activity data were collected for a variety of microorganisms, including Bacillus cereus (ATCC 11778), Staphylococcus aureus (ATCC 33591; ATCC 27660, a methicillin resistant strain (MRSA); ATCC 13709, a methicillin sensitive strain (MSSA)), Escherichia coli (ATCC 25922), Enterococcus faecalis (ATCC 29212), Streptococcus pneumoniae (ATCC 49619; ATCC 51422, a penicillin resistant strain (PRSP)), Enterococcus faecium (ATCC 51559, a vancomycin resistant strain (VRE)), and Staphylococcus epidermidis (ATCC 12228). Additionally, antifungal activity data were collected for Candida albicans (ATCC 38247).
The minimal inhibition concentration (MIC) of these compounds was determined using the National Committee for Clinical Laboratory Standards (NCCLS) broth microdilution assay in microtiter plates, as set forth in: (1) the guidelines of the National Committee for Clinical Laboratory Standards (NCCLS) Document M7-A4 (NCCLS, 1997); (2) the guidelines of the National Committee for Clinical Laboratory Standards (NCCLS) Document M11-A4 (NCCLS, 1997); and (3) the guidelines and reference method of the National Committee for Clinical Laboratory Standards (NCCLS) Document M27 -T (NCCLS, 1995). For antifungal assays, the method recommended in Murray, PR., 1995 Manual of Clinical Microbiology (ASM Press, Washington, D.C.), was employed.

S. aureus ATCC 33591 = assay: MIC, NCCLS broth microdilution assay; type: cell-based, Staphylococcus aureus; conditions: S. aureus ATCC 33591

Compound	Minimum Inhibitory Concentration (MIC) (S. pneumoniae ATCC 49619)	Minimum Inhibitory Concentration (MIC) (E. faecalis ATCC 29212)	Minimum Inhibitory Concentration (MIC) (B. cereus ATCC 11778)	Minimum Inhibitory Concentration (MIC) (S. aureus ATCC 13709)	Minimum Inhibitory Concentration (MIC) (E. coli ATCC 25922)	Minimum Inhibitory Concentration (MIC) (S. aureus ATCC 27660)	Minimum Inhibitory Concentration (MIC) (C. albicans ATCC 38247)	Minimum Inhibitory Concentration (MIC) (S. aureus ATCC 33591)
O=C(Nc1ccc(-c2cc3ccccc3o2)cc1)c1cccnc1NCCCN1CCOCC1 [Compound A-16]	+ (12 ≦ MIC ≦ 32)	++ (4 < MIC < 12)	>32 µg/mL	+++ (MIC ≦ 4)	>32 µg/mL	+++ (MIC ≦ 4)	+ (12 ≦ MIC ≦ 32)	
NCCN1CCN(c2ncccc2C(=O)Nc2ccc(-c3cc4ccccc4o3)cc2)CC1 [Compound A-17]	+ (12 ≦ MIC ≦ 32)	+ (12 ≦ MIC ≦ 32)	+ (12 ≦ MIC ≦ 32)	++ (4 < MIC < 12)	>32 µg/mL	+ (12 ≦ MIC ≦ 32)	+ (12 ≦ MIC ≦ 32)	
O=C(Nc1ccc(-c2cc3ccccc3o2)cc1)c1cccnc1N1CCNCC1 [Compound A-20]	+ (12 ≦ MIC ≦ 32)	+ (12 ≦ MIC ≦ 32)	+ (12 ≦ MIC ≦ 32)	++ (4 < MIC < 12)	+ (12 ≦ MIC ≦ 32)	++ (4 < MIC < 12)	++ (4 < MIC < 12)	
NCCOCCOCCNc1ncccc1C(=O)Nc1ccc(-c2cc3ccccc3o2)cc1 [Compound A-22]	+ (12 ≦ MIC ≦ 32)	++ (4 < MIC < 12)	++ (4 < MIC < 12)	++ (4 < MIC < 12)	>32 µg/mL	++ (4 < MIC < 12)	+++ (MIC ≦ 4)	
CCN(CC)CCCNc1cc(Cl)ccc1C(=O)Nc1ccc(-c2cc3ccccc3o2)cc1 [Compound A-23]	+ (12 ≦ MIC ≦ 32)	+++ (MIC ≦ 4)	+++ (MIC ≦ 4)	+++ (MIC ≦ 4)	>32 µg/mL	+++ (MIC ≦ 4)	+ (12 ≦ MIC ≦ 32)	+++ (MIC ≦ 4)
NCCOCCOCCNc1cc(Cl)ccc1C(=O)Nc1ccc(-c2cc3ccccc3o2)cc1 [Compound A-24]	>32 µg/mL	+ (12 ≦ MIC ≦ 32)	>32 µg/mL	+ (12 ≦ MIC ≦ 32)	>32 µg/mL	+ (12 ≦ MIC ≦ 32)	>32 µg/mL	+ (12 ≦ MIC ≦ 32)
O=C(Nc1ccc(-c2cc3ccccc3o2)cc1)c1ccc(Cl)cc1NCCN1CCCC1 [Compound A-25]	>32 µg/mL	+ (12 ≦ MIC ≦ 32)	>32 µg/mL	+ (12 ≦ MIC ≦ 32)	>32 µg/mL	+ (12 ≦ MIC ≦ 32)	>32 µg/mL	+ (12 ≦ MIC ≦ 32)
O=C(Nc1ccc(-c2cc3ccccc3o2)cc1)c1ccc(Cl)cc1NCCN1CCNCC1 [Compound A-26]	+ (12 ≦ MIC ≦ 32)	++ (4 < MIC < 12)	+ (12 ≦ MIC ≦ 32)	+++ (MIC ≦ 4)	>32 µg/mL	++ (4 < MIC < 12)	>32 µg/mL	++ (4 < MIC < 12)
Cc1cc(NC(=O)c2cccnc2NCCN2CCCCC2)ccc1-c1cc2ccccc2o1 [Compound A-27]	+ (12 ≦ MIC ≦ 32)	+++ (MIC ≦ 4)	++ (4 < MIC < 12)	+++ (MIC ≦ 4)	>32 µg/mL	+++ (MIC ≦ 4)	++ (4 < MIC < 12)	+++ (MIC ≦ 4)
Cc1cc(NC(=O)c2cccnc2NCCN2CCNCC2)ccc1-c1cc2ccccc2o1 [Compound A-28]	+ (12 ≦ MIC ≦ 32)	++ (4 < MIC < 12)	+ (12 ≦ MIC ≦ 32)	++ (4 < MIC < 12)	>32 µg/mL	++ (4 < MIC < 12)	+ (12 ≦ MIC ≦ 32)	++ (4 < MIC < 12)
Cc1cc(NC(=O)c2cccnc2NCCCCN)ccc1-c1cc2ccccc2o1 [Compound A-29]	+ (12 ≦ MIC ≦ 32)	+++ (MIC ≦ 4)	+++ (MIC ≦ 4)	+++ (MIC ≦ 4)	>32 µg/mL	+++ (MIC ≦ 4)	+ (12 ≦ MIC ≦ 32)	+++ (MIC ≦ 4)
Cc1cc(NC(=O)c2cccnc2NCCCN(C)C)ccc1-c1cc2ccccc2o1 [Compound A-30]	+ (12 ≦ MIC ≦ 32)	+++ (MIC ≦ 4)	++ (4 < MIC < 12)	+++ (MIC ≦ 4)	>32 µg/mL	+++ (MIC ≦ 4)	+ (12 ≦ MIC ≦ 32)	+++ (MIC ≦ 4)
O=C(Nc1ccc(-c2cc3ccccc3o2)nc1)c1nsc(NCCN2CCNCC2)c1Cl [Compound A-35]	>32 µg/mL	+ (12 ≦ MIC ≦ 32)	>32 µg/mL	+ (12 ≦ MIC ≦ 32)	>32 µg/mL	+ (12 ≦ MIC ≦ 32)	+++ (MIC ≦ 4)	>32 µg/mL
CN(C)CCCNc1snc(C(=O)Nc2ccc(-c3cc4ccccc4o3)nc2)c1Cl [Compound A-36]	+ (12 ≦ MIC ≦ 32)	++ (4 < MIC < 12)	++ (4 < MIC < 12)	+++ (MIC ≦ 4)	>32 µg/mL	+ (12 ≦ MIC ≦ 32)	++ (4 < MIC < 12)	++ (4 < MIC < 12)
NCCCCNc1snc(C(=O)Nc2ccc(-c3cc4ccccc4o3)nc2)c1Cl [Compound A-37]	>32 µg/mL	++ (4 < MIC < 12)	>32 µg/mL	+++ (MIC ≦ 4)	>32 µg/mL	+++ (MIC ≦ 4)	+ (12 ≦ MIC ≦ 32)	++ (4 < MIC < 12)
NCCNc1snc(C(=O)Nc2ccc(-c3cc4ccccc4o3)nc2)c1Cl [Compound A-38]	>32 µg/mL	+++ (MIC ≦ 4)	+++ (MIC ≦ 4)	+++ (MIC ≦ 4)	>32 µg/mL	+++ (MIC ≦ 4)	+ (12 ≦ MIC ≦ 32)	+++ (MIC ≦ 4)
Cc1ccc2nc(-c3ccc(NC(=O)c4nsc(NCCCN(C)CCCN)c4Cl)cc3)sc2c1 [Compound A-51]	+++ (MIC ≦ 4)	+++ (MIC ≦ 4)	+++ (MIC ≦ 4)	+++ (MIC ≦ 4)	>32 µg/mL	+++ (MIC ≦ 4)	+++ (MIC ≦ 4)	
Cc1ccc2nc(-c3ccc(NC(=O)c4nsc(NCCN)c4Cl)cc3)sc2c1 [Compound A-52]	>32 µg/mL	+++ (MIC ≦ 4)	+ (12 ≦ MIC ≦ 32)	+++ (MIC ≦ 4)	>32 µg/mL		>32 µg/mL	+++ (MIC ≦ 4)
